Experimental data as given in the supplement of paper PMC10307832.

Compound: OCc1c[nH]c2ccccc12 [Indole-3-carbinol] + O=C(CCCCCCC(=O)Nc1ccccc1)NO [Vorinostat] (partner 1 µM)
Assay: relative viability (nuclei count vs DMSO), 5 days (fraction); higher = more cells survive
How it was run: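 For relative viability, nuclei counts in treated wells were divided by those in vehicle wells. Lung cancer cell lines had been pin-tool dosed in 1536-well plates the day after seeding and cultured for 5 days, then fixed and stained in one step (final 0.05% Triton X-100, 1% formaldehyde, 1 ug/ml Hoechst) and imaged at 4×. Doses were one drug alone or a fixed anchor-drug dose plus five library-drug doses (not always all listed) in √10 steps, and values are duplicate-plate medians.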

Cell Line	relative viability (first compound 0.253 µM)	relative viability (first compound 0.8 µM)	relative viability (first compound 2.53 µM)	relative viability (first compound 8 µM)
201T	1.1	0.88	0.978	0.927
A-427	0.836	0.818	0.86	0.825
ABC-1	1.59	1.05	1.23	1.1
BEN	0.512	0.512	0.63	0.631
CAL-12T	0.844	0.808	0.908	0.741
COR-L23	0.445	0.492	0.459	0.371
COR-L 105	0.916	0.847	0.73	0.862
ChaGo-K-1	0.792	0.729	0.76	0.73
EKVX	0.745	0.631	0.942	0.697
EMC-BAC-2	0.423	0.444	0.421	0.447
EPLC-272H	0.265	0.534	0.409	0.523
H3255	0.753	0.811	0.955	0.778
HARA	0.515	0.627	0.505	0.511
HCC-15	0.909	0.929	0.963	0.789
HCC-44	1.15	1.16	1.12	1.03
HCC-78	0.508	0.533	0.443	0.452
HCC-366	0.355	0.331	0.351	0.281
HCC-827	0.767	0.903	0.896	0.839
HOP-62	0.674	0.534	0.714	0.582
IA-LM	1.08	1.03	1.11	0.96
LC-2-ad	0.765	0.742	0.696	0.662
LCLC-97TM1	0.858	1.01	0.818	0.646
LCLC-103H	0.894	0.736	0.829	0.706
LK-2	0.193	0.295	0.333	0.448

Cell Line	relative viability (first compound 0.253 µM)	relative viability (first compound 0.8 µM)	relative viability (first compound 2.53 µM)	relative viability (first compound 8 µM)
LOU-NH91	0.924	0.865	0.961	0.945
LU99A	0.504	0.514	0.59	0.455
LXF-289	0.836	0.795	0.733	0.76
NCI-H23	0.516	0.615	0.704	0.587
NCI-H322M	0.713	0.8	0.902	0.779
NCI-H358	0.763	0.752	0.684	0.624
NCI-H441	0.823	1.05	1.09	0.758
NCI-H460	0.768	0.76	0.754	0.683
NCI-H520	0.707	0.7	0.87	0.692
NCI-H522	1.1	0.694	0.808	0.95
NCI-H596	0.552	0.522	0.565	0.675
NCI-H647	0.731	0.529	0.731	0.538
NCI-H650	0.654	0.454	0.411	0.456
NCI-H661	0.762	0.816	0.874	0.716
NCI-H727	1.13	1.12	1.36	1.23
NCI-H838	0.741	0.737	0.766	0.654
NCI-H1355	0.612	0.69	0.667	0.63
NCI-H1395	0.694	0.65	0.628	1.05
NCI-H1437	0.827	0.979	0.861	0.868
NCI-H1650	0.535	0.623	0.657	0.676
NCI-H1651	0.517	0.55	0.616	0.646
NCI-H1666	0.926	1.1	1.08	0.995
NCI-H1734	0.799	0.809	0.803	0.774
NCI-H1755	0.83	0.694	0.738	0.78

Cell Line	relative viability (first compound 0.253 µM)	relative viability (first compound 0.8 µM)	relative viability (first compound 2.53 µM)	relative viability (first compound 8 µM)
NCI-H1793	0.915	0.798	0.898	0.632
NCI-H1915	0.511	0.512	0.495	0.518
NCI-H1944	0.529	0.472	0.595	0.523
NCI-H1975	0.663	0.754	0.73	0.712
NCI-H1993	0.697	1.05	0.958	0.783
NCI-H2009	0.752	0.733	0.746	0.699
NCI-H2023	0.727	0.526	0.588	0.572
NCI-H2085	0.867	0.751	0.753	0.687
NCI-H2087	0.837	1.09	0.86	0.655
NCI-H2126	0.734	0.834	0.718	0.752
NCI-H2170	0.906	0.832	0.851	0.778
NCI-H2228	0.728	0.682	0.788	0.571
NCI-H2347	0.521	0.638	0.526	0.506
NCI-H2405	1	1.03	0.971	0.978
NCI-H3122	1.05	1.05	1.06	0.885
PC-3 [JPC-3]	0.827	0.926	0.801	0.875
PC-14	0.665	0.594	0.724	0.649
RERF-LC-KJ	0.687	0.622	0.656	0.726
SK-LU-1	0.795	0.865	0.757	0.839
SK-MES-1	1.16	1.08	1.08	0.986
SW 900	0.556	0.453	0.573	0.622
SW 1573	0.764	0.731	1.05	0.76
UMC-11	0.332	0.377	0.432	0.398
